Reference: patent publication US9745295B2, “Thiazole-substituted aminoheteroaryls as spleen tyrosine kinase inhibitors” (Merck Sharp & Dohme Corp., priority 2013, dated 2017)

Biological target: T1, recombinant human GST-SYK (Homo sapiens, UniProt P43405)
T1 construct: purchased Carna Biosciences 08-176
Assay: Homogeneous Time-Resolved Fluorescence (HTRF) assay for the recombinant human Syk enzyme
Format: biochemical
Settings: recombinant human GST-SYK 5 pM, ATP 25 μM, read-out: rhSYK IC50
Procedure: Homogeneous Time-Resolved Fluorescence (HTRF) Assay for the Recombinant Human Syk Enzyme
A recombinant GST-hSYK fusion protein was used to measure potency of compounds to inhibit human Syk activity. The recombinant human GST-SYK (Carna Biosciences #08-176) (5 pM final concentration) was incubated with various concentrations of the inhibitor diluted in DMSO (0.1% final concentration) for 10 minutes at room temperature in 15 mM Tris-HCl (pH 7.5), 0.01% tween 20, 2 mM DTT in 384 well plate format. To initiate the reaction the biotinylated substrate peptide (250 nM final concentration) that contains the phosphorylation site for Syk was added with magnesium (5 mM final concentration) and ATP (25 μM final concentration). Final volume of the reaction was 10 μL. Phosphorylation of the peptide was allowed to proceed for 45′ at room temperature. To quench the reaction and detect the phosphorylated product, 2 nM of a Europium-anti-phosphotyrosine antibody (Perkin Elmer #AD0161) and 70 nM SA-APC (Perkin-Elmer #CR130-100) were added together in 15 mM Tris pH 7.5, 40 mM EDTA, 0.01% tween 20. Final volume of the quenching solution was 10 μL.
The resulting HTRF signal was measured after 30 minutes on an EnVision (Perkin-Elmer) reader using a time-resolved fluorescence protocol. Table A below lists activities as IC50 values (nM) for representative compounds of the invention.

Row | IC50 [nM] | SMILES
1 | 2.1 | Cc1cc(Nc2nccc(C(F)(F)F)n2)cc(-c2cnc(C3(O)CCC(C(=O)O)C(C)(C)C3)s2)n1 (single isomer, unassigned) [Example 1.9, (1S,4R or 1R,4S)-4-hydroxy-2,2-dimethyl-4-[5-(6-methyl-4-{[4-(trifluoromethyl)pyrimidin-2-yl]amino}pyridin-2-yl)-1,3-thiazol-2-yl] cyclohexane-carboxylic acid]
2 | 0.289 | Cc1cc(Nc2nccc(C(F)(F)F)n2)cc(-c2cnc(C(C)(O)c3ccc(C(=O)O)cc3)s2)n1 (single isomer, unassigned) [Example 1.20, (R or S)-4-(1-hydroxy-1-(5-(6-methyl-4-((4-(trifluoromethyl)pyrimidin-2-yl)amino)pyridin-2-yl)thiazol-2-yl)ethl)benzoic acid]
3 | 6.91 | Cc1cc(Nc2nccc(C)n2)cc(-c2cnc(C3(O)CCC(C(=O)O)C(C)(C)C3)s2)n1 (single isomer, unassigned) [Example 4.16, (1S,4R or 1R,4S)-4-hydroxy-2,2-dimethyl-4-(5-{6-methyl-4-[(4-methylpyrimidin-2-yl)amino]pyridin-2-yl}-1,3-thiazol-2-yl)cyclohexane-carboxylic acid]
4 | 0.212 | Cc1cc(Nc2cc(C)ncn2)nc(-c2cnc(C3(O)CCCc4cc(C(=O)O)ccc43)s2)c1 (single isomer, unassigned) [Example 2.9, (R or S)-5-hydroxy-5-(5-{4-methyl-6-[(6-methylpyrimidin-4-yl)amino]pyridin-2-yl}-1,3-thiazol-2-yl)-5,6,7,8-tetrahydronaphthalene-2-carboxlic acid]
5 | 5.55 | COc1cc(Nc2nccc(C(F)(F)F)n2)cc(-c2cnc(C3(O)CCC(C(=O)O)C(C)(C)C3)s2)n1 (single isomer, unassigned) [Example 4.18, (1S,4R or 1R,4S)-4-hydroxy-4-[5-(6-methoxy-4-{[4-(trifluoromethyl)pyrimidin-2-yl]amino}pyridin-2-yl)-1,3-thiazol-2-yl]-2,2-dimethylcyclohexane carboxylic acid]
6 | 17.6 | COC(=O)c1ccc2c(c1)CCCC2(O)c1ncc(-c2cc(Nc3nccc(C(F)(F)F)n3)cc(C)n2)s1 (single isomer, unassigned) [Example 4.24, (R or S)-methyl 5-hydroxy-5-[5-(6-methyl-4-{[4-(trifluoromethyl)pyrimidin-2-yl]amino}pyridin-2-yl)-1,3-thiazol-2-yl]-5,6,7,8-tetrahydronaphthalene-2-carboxylate]
7 | 73.6 | CCCCOC(=O)[C@H]1CC[C@H](C(C)(O)c2ncc(-c3cc(Nc4nccc(OC)n4)cc(C)n3)s2)CC1 (single isomer, unassigned) [Example 4.7, butyl (trans)-4-((R or S)-1-hydroxy-1-(5-{4-[(4-methoxypyrimidin-2-yl)amino]-6-methylpyridin-2-yl}-1,3-thiazol-2-yl)ethyl]cyclohexane carboxylate]
8 | 1.37 | Cc1cc(Nc2nccc(C(F)F)n2)cc(-c2cnc(C(C)(O)C3CCC(C(=O)O)CC3)s2)n1 (single isomer, unassigned) [Example 4.17, (trans)-4-((R or S)-{1-[5-(4-{[4-(difluoromethyl)pyrimidin-2-yl]amino}-6-methylpyridin-2-yl)-1,3-thiazol-2-yl]-1-hydroxyethyl}cyclo-hexanecarboxylic acid]
9 | 46.5 | Cc1cc(Nc2cccnn2)nc(-c2cnc(C3(O)CCCc4cc(C(=O)O)ccc43)s2)c1 (single isomer, unassigned) [Example 2.8, (R or S)-5-hydroxy-5-{5-[4-methyl-6-(pyridazin-3-ylamino)pyridin-2-yl]-1,3-thiazol-2-yl}-5,6,7,8-tetrahydronaphthalene-2-carboxylic acid]
10 | 4.54 | CC1(C)CC(O)(c2ncc(-c3cccc(Nc4cc(C(F)(F)F)ncn4)n3)s2)CCC1C(=O)O (single isomer, unassigned) [Example 3.7, (1S,4R or 1R,4S)-4-hydroxy-2,2-dimethyl-4-[5-(6-{[6-(trifluoromethyl)pyrimidin-4-yl]amino}pyridin-2-yl)-1,3-thiazol-2-yl]cyclohexanecarboxylic acid]
11 | 2.62 | Cc1cc(Nc2cc(C(F)(F)F)ncn2)nc(-c2cnc(C3(O)CCC(C(=O)O)C(C)(C)C3)s2)c1 (single isomer, unassigned) [Example 1.7, (1S,4R or 1R,4S)-4-hydroxy-2,2-dimethyl-4-[5-(4-methyl-6-{[6-(trifluoromethyl)pyrimidin-4-yl]amino}pyridin-2-yl)-1,3-thiazol-2-yl] cyclohexane-carboxylic acid]
12 | 0.0959 | Cc1cc(Nc2nccc(C(F)(F)F)n2)cc(-c2cnc(C3(O)CCc4cc(C(=O)O)ccc43)s2)n1 [Example 4.26, (1R, or 1S)-1-hydroxy-1-[5-(6-methyl-4-{[4-(trifluoromethyl)pyrimidin-2-yl]amino}pyridin-2-yl)-1,3-thiazol-2-yl]-2,3-dihydro-1H-indene-5-carboxylic acid]
13 | 94 | CCCCOC(=O)[C@H]1CC[C@H](C(C)(O)c2ncc(-c3cc(Nc4nccc(C)n4)cc(C)n3)s2)CC1 (single isomer, unassigned) [Example 4.10, butyl (trans)-4-((R or S)-1-hydroxy-1-(5-{6-methyl-4-[(4-methylpyrimidin-2-yl)amino]pyridin-2-yl}-1,3-thiazol-2-yl)ethyl]cyclohexane carboxylate]
14 | 4200 | Cc1cc(Nc2cncc(C(F)(F)F)n2)cc(-c2cnc(C3(O)CCC(C(=O)O)C(C)(C)C3)s2)c1 (single isomer, unassigned) [Example 2.4, (1S,4R or 1R,4S)-4-hydroxy-2,2-dimethyl-4-[5-(3-methyl-5-{[6-(trifluoromethyl)pyrazin-2-yl]amino}phenyl)-1,3-thiazol-2-yl]cyclohexane-carboxylic acid]
15 | 0.698 | Cc1cc(Nc2cc(C(F)(F)F)ccn2)nc(-c2cnc(C3(O)CCC(C(=O)O)C(C)(C)C3)s2)n1 (single isomer, unassigned) [Example 1.12, (1S,4R or 1R,4S)-4-hydroxy-2,2-dimethyl-4-[5-(4-methyl-6-{[4-(trifluoromethyl)pyridin-2-yl]amino}pyrimidin-2-yl)-1,3-thiazol-2-yl]cyclohexane-carboxylic acid]
16 | 0.562 | Cc1cc(Nc2cc(C(F)(F)F)ncn2)nc(-c2cnc(C3(O)CCC(C(N)=O)C(C)(C)C3)s2)c1 (single isomer, unassigned) [Example 3.5, (1S,4R or 1R,4S)-4-hydroxy-2,2-dimethyl-4-[5-(4-methyl-6-{[6-(trifluoromethyl)pyrimidin-4-yl]amino}pyridin-2-yl)-1,3-thiazol-2-yl]cyclohexanecarboxamide]
17 | 22.1 | Cc1cc(Nc2nccc(C)n2)cc(-c2cnc([C@@]3(O)CC[C@H](C(=O)O)C(C)(C)C3)s2)n1 (single isomer, unassigned) [Example 4.3, (1S,4R or 1R, 4S)-4-hydroxy-2,2-dimethyl-4-(5-{6-methyl-4-[(4-methylpyrimidin-2-yl)amino]pyridin-2-yl}-1,3-thiazol-2-yl)cyclohexanecarboxylic acid]
18 | 0.441 | Cc1cc(Nc2cc(C(F)(F)F)ncn2)nc(-c2cnc(C3(O)CCC(C(=O)O)C(C)(C)C3)s2)c1 (single isomer, unassigned) [Example 1.6, (1S,4R or 1R,4S)-4-hydroxy-2,2-dimethyl-4-[5-(4-methyl-6-{[6-(trifluoromethyl)pyrimidin-4-yl]amino}pyridin-2-yl)-1,3-thiazol-2-yl] cyclohexane-carboxylic acid]
19 | 52.3 | Cc1cc(Nc2ncnc(C)n2)cc(-c2cnc([C@@]3(O)CC[C@H](C(=O)O)C(C)(C)C3)s2)c1 [Example 2.2, (1S,4R)-4-hydroxy-2,2-dimethyl-4-(5-{3-methyl-5-[(4-methyl-1,3,5-triazin-2-yl)amino]phenyl}-1,3-thiazol-2-yl)cyclohexanecarboxylic acid]
20 | 1.17 | Cc1cc(Nc2cc(C(F)(F)F)ncn2)nc(-c2cnc(C3(O)CCC(C(=O)O)C(C)(C)C3)s2)c1 (centres unmarked) [Example 1.2, 4-hydroxy-2,2-dimethyl-4-[5-(4-methyl-6-{[6-(trifluoromethyl)pyrimidin-4-yl]amino}pyridin-2-yl)-1,3-thiazol-2-yl]cyclohexane-carboxylic acid]
21 | 0.938 | Cc1cc(Nc2cc(C(F)(F)F)ncn2)nc(-c2cnc([C@@]3(O)CC[C@H](C(=O)O)[C@H](C)C3)s2)c1 (single isomer, unassigned) [Example 1.3, rel-(1S,2R,4R or S)-4-hydroxy-2-methyl-4-[5-(4-methyl-6-{[6-(trifluoromethyl)pyrimidin-4-yl]amino}pyridin-2-yl)-1,3-thiazol-2-yl] cyclohexane-carboxylic acid]
22 | 1.52 | Cc1cc(Nc2cc(C(F)(F)F)ncn2)nc(-c2cnc(C3(O)CCC(C(N)=O)C(C)C3)s2)c1 (single isomer, unassigned) [Example 1.18, rel-(1S,2R,4R or S)-4-hydroxy-2-methyl-4-[5-(4-methyl-6-{[6-(trifluoromethyl)pyrimidin-4-yl]amino}pyridin-2-yl)-1,3-thiazol-2-yl] cyclohexane-carboxamide]
23 | 189 | OC1(c2ncc(-c3cncc(Nc4nccc(C(F)(F)F)n4)c3)s2)CCC1 [Example 2.3]
